Results on 22 compounds are retold here after patent US8461128B2, “Anti-microbial agents and uses thereof” (priority 2005, dated 2013).

The target in series [1] is T1, YbtE (Yersinia pestis, UniProt Q56950). In words: biochemical. The format is biochemical.
Series [2] has as its system M. tuberculosis H37Rv. Nature of the series: microbe, parasite or virus in culture. The format is cell-based, Mycobacterium tuberculosis.
In series [3] the test system is Y. pestis KIM6-2082.1+. In words: microbe, parasite or virus in culture. The format is cell-based, Yersinia pestis.
The target of series [4] is T1, YbtE. In words: biochemical.
Series [5] addresses T1, YbtE. The settings on record: cited from earlier work.
Series [6] is described as follows: Isotopic stability in D2O (NMR). The format is physicochemical. The settings on record: room temperature.
Series [7] concerns MBT production in M. tuberculosis. The format is cell-based, Mycobacterium tuberculosis.
In series [8] the test system is 92 Y. pestis strains. The settings on record: cited from earlier work.
The subject of series [9] is M. tuberculosis H37Rv reference strain. The settings on record: Wanger et al. 1996; cited from earlier work.
The mark [10] stands for this setting: Mycobacterium tuberculosis, H37RV.

Converted amounts (≈) assume the structure as drawn. “And” between values parts separate entries of the source, which are not always exact repeats. Equal entries are not always repeated. Where two headings read alike, the source gives them in different places.

T1 sequence (Q56950 1-525): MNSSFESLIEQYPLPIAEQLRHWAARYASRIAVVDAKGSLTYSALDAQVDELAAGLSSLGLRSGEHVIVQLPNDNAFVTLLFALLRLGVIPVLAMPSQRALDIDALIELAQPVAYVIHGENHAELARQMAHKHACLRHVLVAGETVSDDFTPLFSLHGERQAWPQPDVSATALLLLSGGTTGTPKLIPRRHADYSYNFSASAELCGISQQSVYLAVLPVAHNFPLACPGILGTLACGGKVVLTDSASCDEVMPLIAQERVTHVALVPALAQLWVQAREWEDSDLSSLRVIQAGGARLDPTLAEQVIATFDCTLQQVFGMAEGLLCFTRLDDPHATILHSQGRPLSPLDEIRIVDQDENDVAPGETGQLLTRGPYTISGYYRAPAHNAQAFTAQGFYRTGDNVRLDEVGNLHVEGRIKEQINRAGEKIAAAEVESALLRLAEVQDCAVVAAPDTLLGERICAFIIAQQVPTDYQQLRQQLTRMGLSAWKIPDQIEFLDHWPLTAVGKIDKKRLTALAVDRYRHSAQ

As to `CC(OS(=O)(=O)NC(=O)c1ccccc1O)[C@H]1O[C@@H](n2cnc3c(N)ncnc32)[C@H](O)[C@@H]1O` (mixture of isomers) [(RS)-5′-methyl-salicyl-AMS], the IC50 in series [1] (IC50) worked out at 9 nM.
For `COc1ccccc1C(=O)NS(=O)(=O)OC[C@H]1O[C@@H](n2cnc3c(N)ncnc32)[C@H](O)[C@@H]1O` [2-methoxybenzoyl-AMS], in series [1] (IC50), the IC50 is > 80 nM and 65 nM. In [2] (setting [10]), this compound showed an IC50 greater than 200 µM and an MIC90 greater than 200 µM.
For the compound `CC(=O)Oc1ccccc1C(=O)NS(=O)(=O)OC[C@H]1O[C@@H](n2ccc3ccccc32)[C@H](OC(C)=O)[C@@H]1OC(C)=O` [2′,2″,3′-triacetylsalicyl-IRMS], the MIC90 was roughly 500 µM (≈ 287 µg/mL) in series [3] (Yersinia pestis) and roughly 50 µM (≈ 28.7 µg/mL) in series [2] (setting [10]). For the same compound, the IC50 in series [1] (IC50) was 1800 nM; in series [2] it was 25 µM and 22 µM and 33 µM and 31 µM and 35 µM; in [2] (setting [10]), 24 µM.
For `CC(=O)O[C@@H]1[C@H](OC(C)=O)[C@@H](COS(=O)(=O)NC(=O)c2ccccc2O)O[C@H]1n1cnc2c(N)ncnc21` [2′,3′-diacetyl-salicyl-AMS], the MIC90 in series [2] (setting [10]) was greater than 200 µM.
Regarding `CC(=O)O[C@@H]1[C@H](OC(C)=O)[C@@H](COS(=O)(=O)NC(=O)c2ccccc2O)O[C@H]1n1ccc2ccccc21` [2′,3′-diacetylsalicyl-IRMS], the IC50 in series [3] (Yersinia pestis) was greater than 200 µM; in series [1] (IC50), 3900 nM; in series [2] (setting [10]), greater than 200 µM. Also, the MIC90 in series [3] (Yersinia pestis) and in [2] (setting [10]) was greater than 200 µM each time.
Turning to `Nc1ncnc2c1ncn2[C@@H]1O[C@H](COS(=O)(=O)NC(=O)c2ccc(O)cc2)[C@@H](O)[C@H]1O` [4-hydroxybenzoyl-AMS], the IC50 in [1] (IC50) is > 80 nM and 6000 nM; in [2], 110 µM; in [2] (setting [10]) it was greater than 200 µM. In series [2] (setting [10]), this compound showed an MIC90 greater than 200 µM.
On to `Cc1cccc(O)c1C(=O)NS(=O)(=O)OC[C@H]1O[C@@H](n2cnc3c(N)ncnc32)[C@H](O)[C@@H]1O` [6-methylsalicyl-AMS], for which, in series [1] (IC50), the IC50 stood at 23 nM.
In the case of `Nc1ncnc2c1ncn2[C@@H]1O[C@H](COS(N)(=O)=O)[C@@H](O)[C@H]1O` [AMS, 5′-O-Sulfamoyladenosine, reference compound], the inhibition of salicylation result in series [1] was “did not inhibit salicylation”. Also, the IC50 in series [2] was 39 µM and 43 µM and 55 µM. In series [2] (setting [10]), inhibition was half-maximal at 35 µM (IC50) and the MIC90 is roughly 100 µM (≈ 34.6 µg/mL). The inhibition of adenylation entry in [4] is on record as “did not inhibit adenylation”.
Take `Nc1ncnc2c1ncn2[C@@H]1O[C@H](COP(=O)(O)OP(=O)(O)OP(=O)(O)O)[C@@H](O)[C@H]1O` [ATP]: the Km in series [5] (read-out: Km ATP) was 350 µM; in series [4] (read-out: Km ATP) it was 172 µM.
In [1] (IC50), `NS(=O)(=O)OC[C@H]1O[C@@H](n2ccc3ccccc32)[C@H](O)[C@@H]1O` [IRMS] gave an IC50 greater than 20000 nM. In addition, in series [2] (setting [10]), the IC50 is greater than 200 µM and the MIC90 is greater than 200 µM.
In series [1] (IC50), `CC(=O)NS(=O)(=O)OC[C@H]1O[C@@H](n2cnc3c(N)ncnc32)[C@H](O)[C@@H]1O` [acetyl-AMS] had an IC50 greater than 400000 nM.
Take `Nc1ncnc2c1ncn2[C@@H]1O[C@H](COS(=O)(=O)NC(=O)c2ccccc2)[C@@H](O)[C@H]1O` [benzoyl-AMS]: the IC50 was 500 µM in series [3]; 4 nM and 12 nM in series [1] (IC50); 105 µM and 133 µM in [2]. Moreover, the MIC90 in series [3] (Yersinia pestis) is greater than 500 µM; in [2] (setting [10]) it was greater than 200 µM.
`Nc1ncnc2c1nc1n2[C@@H]2O[C@H](COS(=O)(=O)NC(=O)CCCCC1)[C@@H](O)[C@H]2O` [cyclo-hexanoyl-AMS]: the IC50 in [1] (IC50) is greater than 40000 nM.
`Nc1ncnc2c1nc1n2[C@@H]2O[C@H](COS(=O)(=O)NC(=O)CCCC#C1)[C@@H](O)[C@H]2O` [cyclo-hexynoyl-AMS]: the IC50 in [1] (IC50) was greater than 40000 nM.
As to `NNC(=O)c1ccncc1` [isoniazid, reference compound], the IC50 was 0.11 µM and 0.08 µM and 0.1 µM in series [2]; 0.12 µM in [2] (setting [10]). Moreover, the MIC90 was determined as 0.16 µM (≈ 0.0219 µg/mL) in [2] and 0.2 µM (≈ 0.0274 µg/mL) in series [2] (setting [10]).
Consider `Nc1ccc(C(=O)O)c(O)c1` [p-aminosalicylic acid, reference compound], for which, in series [2], the half-inhibitory concentration (IC50) was determined as 0.08 µM and the iron-deficient media selectivity result is listed as “do not exhibit iron-deficient media selectivity”. In series [2] (setting [10]), this compound had an IC50 of 0.09 µM and an MIC90 of 0.78 µM (≈ 0.119 µg/mL).
For `Nc1ncnc2c1ncn2[C@@H]1O[C@H](COS(=O)(=O)NC(=O)c2ccccc2O)[C@@H](O)[C@H]1O` [salicyl-AMS, 5′-O—[N-(salicyl)sulfamoyl]-adenosine], in series [6], the “isotopically stable in D2O” value is reported as no less than 54 days. Also, in series [3], the activity on growth entry is “not active”. The IC50 in [3] (Yersinia pestis, read-out: IC50, bacterial growth in iron-limiting media) was 25 to 52 µM; in series [3] (Yersinia pestis, read-out: IC50, growth inhibition), roughly 50 µM; in [3] (read-out: IC50, growth inhibition), 51.2 ± 4.7 µM; in series [1] (IC50), 14.5 nM and 9 nM; in series [1] (read-out: IC50) it was 47.9 nM; in [4], 10 to 15 nM. In addition, in series [4] (read-out: IC50, inhibition of adenylation activity), the IC50 was found to be 14.7 ± 2 nM. Also, the MIC in series [3] (Yersinia pestis, read-out: MIC95, growth inhibition) was 96.7 µM (≈ 45.1 µg/mL); in series [2] (Mycobacterium tuberculosis, H37RV, read-out: MIC95, growth inhibition), 268 µM (≈ 125 µg/mL). Further, in series [7], the MBT production result is on record as “virtually undetectable”. The “increase of IC50, iron-supplemented vs iron-deficient” value in [2] came out at 18 fold. The same compound yielded a dissociation constant (Kd) in series [4] of no more than 1 nM. Further, the Ki in series [4] is 0.35 ± 0.27 nM; in series [4] (read-out: Ki (non-competitive with respect to salicylate)), 1.08 ± 0.98 nM. In addition, the “slope of IC50 versus YbtE concentration” value in [4] stood at 0.43. For the same compound, the “slope of IC50 versus YbtE concentration, corrected” value in [4] amounted to 0.52.
With `O=C(NS(=O)(=O)OC[C@H]1O[C@@H](n2ccc3ccccc32)[C@H](O)[C@@H]1O)c1ccccc1O` [salicyl-IRMS, β-indolyl 5′-O—(N-salicylsulfamoyl)ribose], the IC50 in series [3] (Yersinia pestis) is greater than 500 µM; in [1] (IC50) it was 21 nM; in [2] (setting [10]) it was greater than 200 µM. The MIC90 in series [3] (Yersinia pestis) was greater than 500 µM; in series [2] (setting [10]), greater than 200 µM.
Turning to `Nc1ncnc2c1ncn2[C@H]1C[C@H](O)[C@@H](COS(=O)(=O)NC(=O)c2ccccc2O)O1` [salicyl-dAMS], the IC50 in series [1] (IC50) is 8 nM and 14 nM.
In series [2] (setting [10]), `Nc1ncnc2c1ncn2[C@H]1CC[C@@H](COS(=O)(=O)NC(=O)c2ccccc2O)O1` [salicyl-ddAMS] yielded an MIC90 of roughly 200 µM (≈ 86.9 µg/mL).
For the compound `O=C(O)c1ccccc1O` [salicylate], the Km in series [5] (read-out: Km salicylate) is 4.6 µM; in series [4] (read-out: Km salicylate), 5.4 µM.
As to `[H]/N=C(/N)N[C@H]1[C@H](O)[C@@H](O)[C@H](O[C@@H]2O[C@@H](C)[C@](O)(C=O)[C@H]2O[C@@H]2O[C@@H](CO)[C@H](O)[C@@H](O)[C@@H]2NC)[C@@H](N/C(N)=N\[H])[C@@H]1O` [streptomycin], the MIC in series [8] is 2.6 to 6.9 µM; in series [9] it was 0.4 to 1.7 µM.

For orientation: IC50 means the midpoint of a concentration-inhibition curve. In general, Km refers to the substrate concentration at which the rate is half of its maximum. The Kd is the concentration at which binding is half-saturated. In general, Ki refers to the equilibrium dissociation constant of an inhibitor or competing ligand from its target.
